From patent US6245743A, “Inhibitors of factor Xa” (COR Therapeutics, Inc., priority 1998, dated 2001) come the findings set out here.

The test system of series [1] is rabbit venous thrombosis model. The series can be described thus: Rabbit deep vein (venous) thrombosis model. Type of series: in vivo. Particulars: for Hct: mean (SD on next line); for PLT / RBC / WBC: mean±SD. From the text: Rabbits were anesthetized with I.M. injections of Ketamine, Xylazine, and Acepromazine cocktail.
Series [2] is described as follows: Cuticle bleeding time model in rabbits. Type of series: in vivo, rabbit. As to conditions: 1500 μg/kg+14.85 μg/kg/min, bleeding time experiments. As to the method:
In an ancillary study, a Cuticle Bleeding Time model was used to evaluate the effect of test compounds on bleeding time (BT) measurements in rabbits. The standardized protocol involved anesthesia and catheterization of rabbits as previously described in this Example 43. To measure BT, a toe nail was cut 5 mm from the base of the cuticle with a canine nail trimming device. Time until cessation of bleeding was recorded by wicking the blood on to BT blotting paper in 30 second intervals. Test compound was administered as a bolus followed by infusion regimen. Two BT measurements were obtained prior to administration of test compound and three BT measurements accomplished serially after initiation of steady state infusion of test compound. BT measurements were allowed to continue for up to 30 minutes at which time it was stopped with application of silver nitrate. Blood samples were obtained just prior to all BT measurements and processed for measurement of hematological and coagulation parameters.

For the next series, the target named is factor Xa (Homo sapiens, UniProt P00742). The series can be described thus: Factor Xa amidolytic assay (chromogenic substrate S2765). Particulars: read-out: Inhibitory Activity (IC50) Factor Xa. Format: biochemical.
factor Xa, sequence (P00742 235-488 limits assumed): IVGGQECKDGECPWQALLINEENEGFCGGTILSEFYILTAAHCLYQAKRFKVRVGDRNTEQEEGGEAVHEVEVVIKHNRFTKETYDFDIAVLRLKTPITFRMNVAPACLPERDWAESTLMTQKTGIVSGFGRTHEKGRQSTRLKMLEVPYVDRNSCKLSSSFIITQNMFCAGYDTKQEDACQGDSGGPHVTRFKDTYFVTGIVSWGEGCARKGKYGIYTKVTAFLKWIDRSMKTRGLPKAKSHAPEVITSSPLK
factor Xa, sequence (P00742 41-179 limits assumed): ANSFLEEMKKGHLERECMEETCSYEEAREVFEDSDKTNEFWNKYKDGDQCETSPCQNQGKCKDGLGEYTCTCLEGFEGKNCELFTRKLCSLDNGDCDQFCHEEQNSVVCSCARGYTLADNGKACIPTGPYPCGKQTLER
The next series addresses prothrombinase complex (Homo sapiens, UniProt P00742). The series can be described thus: Prothrombinase inhibition assay, plasma free system (thrombin generation, Chromozym TH). Format: biochemical. Particulars: read-out: Inhibitory Activity (IC50) Prothrombinase.

The structures appear in SMILES notation. Square brackets hold non-standard residues; d marks the D form. Peptide text beside a SMILES is read from it. * marks the point of attachment. Hydrocinnamoyl = O=C(CCc1ccccc1)*; dCit = NC(=O)NCCC[C@@H](N)C(=O)O; Boc = CC(C)(C)OC(=O)*

prothrombinase complex, sequence (P00742 235-488 limits assumed): as the sequence (P00742 235-488 limits assumed) above
prothrombinase complex, sequence (P00742 41-179 limits assumed): as the sequence (P00742 41-179 limits assumed) above
prothrombinase complex, sequence (P12259 29-737 partner limits assumed): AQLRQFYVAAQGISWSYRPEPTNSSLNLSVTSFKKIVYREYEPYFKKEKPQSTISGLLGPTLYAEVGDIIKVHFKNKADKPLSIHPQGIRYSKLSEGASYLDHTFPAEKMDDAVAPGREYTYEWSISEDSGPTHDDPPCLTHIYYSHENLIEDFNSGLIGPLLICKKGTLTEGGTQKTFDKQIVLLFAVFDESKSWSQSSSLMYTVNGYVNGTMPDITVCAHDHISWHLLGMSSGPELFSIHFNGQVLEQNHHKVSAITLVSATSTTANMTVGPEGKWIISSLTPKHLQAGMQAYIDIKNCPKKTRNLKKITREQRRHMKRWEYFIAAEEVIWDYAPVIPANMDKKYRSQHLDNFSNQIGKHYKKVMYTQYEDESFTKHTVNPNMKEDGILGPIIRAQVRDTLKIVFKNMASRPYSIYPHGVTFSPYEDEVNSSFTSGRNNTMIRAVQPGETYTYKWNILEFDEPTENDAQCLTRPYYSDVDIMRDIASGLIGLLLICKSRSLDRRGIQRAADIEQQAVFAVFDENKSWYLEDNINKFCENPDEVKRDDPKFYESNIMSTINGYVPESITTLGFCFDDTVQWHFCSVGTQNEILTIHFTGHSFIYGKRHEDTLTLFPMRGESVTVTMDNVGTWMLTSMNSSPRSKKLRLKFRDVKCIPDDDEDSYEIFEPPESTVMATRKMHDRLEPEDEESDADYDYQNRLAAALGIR
prothrombinase complex, sequence (P12259 1574-2224 partner limits assumed): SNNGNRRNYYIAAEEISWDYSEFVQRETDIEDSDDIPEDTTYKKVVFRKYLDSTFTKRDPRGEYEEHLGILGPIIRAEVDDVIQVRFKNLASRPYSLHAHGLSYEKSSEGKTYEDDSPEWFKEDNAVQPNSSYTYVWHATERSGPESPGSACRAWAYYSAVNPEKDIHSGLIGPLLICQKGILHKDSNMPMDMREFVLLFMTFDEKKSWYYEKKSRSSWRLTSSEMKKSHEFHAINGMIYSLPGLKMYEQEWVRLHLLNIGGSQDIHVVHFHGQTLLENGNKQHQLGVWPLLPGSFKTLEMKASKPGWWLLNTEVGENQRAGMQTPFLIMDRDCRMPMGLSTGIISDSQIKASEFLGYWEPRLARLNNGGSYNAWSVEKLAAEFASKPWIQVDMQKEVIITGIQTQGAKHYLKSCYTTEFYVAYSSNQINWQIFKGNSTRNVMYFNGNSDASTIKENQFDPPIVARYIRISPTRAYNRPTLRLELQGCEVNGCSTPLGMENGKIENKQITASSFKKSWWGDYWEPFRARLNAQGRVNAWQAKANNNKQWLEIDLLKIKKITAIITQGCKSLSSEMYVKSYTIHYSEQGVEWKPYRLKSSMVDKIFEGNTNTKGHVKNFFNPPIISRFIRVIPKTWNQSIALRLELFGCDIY

In the case of `CC(C)(C)OC(=O)N[C@H](CCCNC(=N)N)C(=O)NCC(=O)N[C@H](C=O)CCCNC(=N)N` [Boc-D-Arg-Gly-Arg-H] (Boc-[dR]-Gly-Arg-aldehyde), in series [1] (200 + 1.98 μg/kg + μg/kg/min), the Hct came to 36.9%, the PLT was 393 ± 84 × 10^3 /μL, the RBC is 5.69 ± 0.14 × 10^6 /μL and the WBC is recorded as 4.45 ± 0.97 × 10^3 /μL. Besides, in series [1] (600 + 5.94 μg/kg + μg/kg/min), the Hct was found to be 35.3%, the PLT is 442 ± 81 × 10^3 /μL, the RBC was 5.74 ± 0.48 × 10^6 /μL and the WBC was 3.87 ± 0.65 × 10^3 /μL. Moreover, in series [1] (1000 + 9.90 μg/kg + μg/kg/min), the Hct came to 35.5%, the PLT is recorded as 375 ± 73 × 10^3 /μL, the RBC is given as 5.71 ± 0.28 × 10^6 /μL and the WBC is listed as 5.09 ± 1.61 × 10^3 /μL. In addition, in series [1] (1500 + 14.85 μg/kg + μg/kg/min), the Hct came to 36.0%, the PLT was 433 ± 22 × 10^3 /μL, the RBC is recorded as 5.80 ± 0.50 × 10^6 /μL and the WBC is recorded as 4.82 ± 1.01 × 10^3 /μL. Besides, the “effects on hematological parameters as compared to saline controls” value in series [1] (all dose regimens) is “no significant effects”. The “antithrombotic efficacy in the rabbit venous thrombosis model” value in series [1] (bolus + infusion, dose range) is “demonstrated antithrombotic efficacy at the higher doses evaluated”. Moreover, in series [2], the “average increase in PT” value amounted to 1.07 fold and the “average increase in aPTT” value amounted to 1.61 fold.
As for `CC(C)(C)OC(=O)N[C@H](CCCNC(N)=O)C(=O)NCC(=O)N[C@H](C=O)CCCNC(=N)N` [Boc-D-Cit-Gly-Arg-H] (Boc-[dCit]-Gly-Arg-aldehyde), the IC50 (commonly the point on the concentration scale where inhibition reaches its midpoint) on factor Xa was 3 µM.
For `CN(C)C(=NCCCC[C@@H](NC(=O)OC(C)(C)C)C(=O)NCC(=O)N[C@H](C=O)CCCNC(=N)N)N(C)C` [Boc-D-Har((CH3)4)-Gly-Arg-H], the 50% inhibitory concentration (IC50) at factor Xa came to 5 µM; on prothrombinase complex it was 44 µM.
Take `N=C(N)NCCC[C@@H](C=O)NC(=O)CNC(=O)[C@@H](CCCNC(=N)N)NC(=O)C(=O)O` [HOOCCO-D-Arg-Gly-Arg-H, Oxaloyl-D-Arg-Gly-Arg-H]: the half-inhibitory concentration (IC50) at prothrombinase complex was 0.063 µM.
Same read-out and setting: under `N=C(N)NCCC[C@@H](C=O)NC(=O)CNC(=O)[C@@H](CCCNC(=N)N)NC(=O)CCc1ccccc1` [PhCH2 CH2 CO-D-Arg-Gly-Arg-H, 3-Phenylpropanoyl-D-Arg-Gly-Arg-H] (Hydrocinnamoyl-[dR]-Gly-Arg-aldehyde) stands 1.7 µM.
